Data set [1] has as its system apoE−/− mice. The data set is described as follows: atherosclerosis quantitation, en face surface lesion analysis (Sudan IV), 4-week study. Format: in vivo. Particulars: 1.0 mg/kg ip once daily, vehicle 12.9±1.8%, P<0.0005. The source says: ApoE^−/− mice (backcrossed ten times to the C57BL/6 background) were purchased from The Jackson Laboratory. The mice were kept on a twelve-hour light/twelve-hour dark regimen upon arrival. All animal experiments were approved by the IACUC of the Consumer & Personal Product Worldwide, in accordance with AAALAC guidelines. Eight week old, male apoE^−/− mice were fed a normal mouse-chow diet (RP5001; PMI Feeds Inc., St. Louis, Mo.) and acclimated for one week before switching to a pro-atherogenic high fat, high cholesterol, diet (“Western diet”, 21% fat, 0.2% cholesterol, diet No. 88137, Harlan-Teklad, Madison, Wis.) for four weeks. […]
As stated above, the mice were sacrificed by CO2 inhalation and bled from the abdominal vena cava. […] Atherosclerosis quantitation was assessed using two independent methods: “en face” surface lesion analysis and aortic root analysis. […] The extent of atherosclerosis is expressed as the percent of the aortic surface area covered by lesions. Aortic root analysis provided a second method verifying atherosclerosis quantitation. Briefly, alternate 8-μm frozen sections covering 300 μm of the proximal aorta, starting at the aortic sinus, were stained for atherosclerotic lesions with oil red O. Images of oil red O-stained aortic root sections were captured and analyzed using Image-Pro 6.0 analysis software. […]

A short description of data set [2]: sirolimus whole blood pharmacokinetics in apoE-/- mice (LC-MS/MS). Particulars: i.p. daily, 0.5, 1.0 and 4.0 mg/kg. Format: in vivo. The protocol: (§1) Upon initiation of the pro-atherogenic diet and osmotic mini-pump implantation, mice were randomly assigned to four groups; namely, vehicle control, rapamycin or sirolimus 0.5 mg/kg, sirolimus 1.0 mg/kg and sirolimus 4.0 mg/kg body weight. The defined amount of sirolimus was dissolved in ethanol, brought up in a vehicle comprising 0.2 percent Sodium carboxymethylcellulose and 0.25 percent tween 80) and administrated to mice (i.p., daily).
Sirolimus was quantitated using liquid-liquid extraction and reverse-phase liquid chromatography mass spectrometry (LC-MS/MS). Briefly, 100 μl of mouse whole blood sample underwent protein precipitation with 5 percent Methanol/Zinc sulfate solution containing the internal standard ascomycin. After centrifugation of the resulting solution, the liquid mixture proceeded with liquid-liquid extraction with 1-chlorobutane. The combined organic extract was then blown down to dryness and reconstituted with 50:50 Methanol:20 mM ammonium acetate solution. The samples were analyzed on API-5000 using C18 reverse-phase chromatography in Multiple Reaction Monitoring (MRM) mode using atmospheric pressure chemical ionization (ApCI) approach. The calibration standard curve results for sirolimus in mouse whole blood were acceptable from 0.5 ng/ml to 10,000 ng/ml with correlation coefficient of 0.998. […]

In data set [3] the test system is apoE−/− mice. The data set is described as follows: second study: established lesions, 8 weeks angII infusion and proatherogenic diet, en face analysis. Format: in vivo. Particulars: 1.0 mg/kg ip once daily for last 4 of 8 weeks; vehicle 37.6±2.7%, P<0.0001. As to the method:
As stated above, the mice were sacrificed by CO2 inhalation and bled from the abdominal vena cava. The aortas were perfusion-fixed and post-fixed in 4 percent paraformaldehyde. Atherosclerosis quantitation was assessed using two independent methods: “en face” surface lesion analysis and aortic root analysis. The aortic arch and thoracic aorta (defined as above the last inter-costal artery) was subjected to “en face” analysis. Briefly, the aorta with major branches (left common carotid artery, right common carotid artery, left subclavian artery) was opened up. The lipid deposition in the inner aortic wall was stained in Sudan IV buffer. […] The extent of atherosclerosis is expressed as the percent of the aortic surface area covered by lesions. Aortic root analysis provided a second method verifying atherosclerosis quantitation. Briefly, alternate 8-μm frozen sections covering 300 μm of the proximal aorta, starting at the aortic sinus, were stained for atherosclerotic lesions with oil red O. Images of oil red O-stained aortic root sections were captured and analyzed using Image-Pro 6.0 analysis software. All samples were coded by one investigator and analyzed by another investigator who is completely blinded to the codes. […]

Data set [4] concerns apoE−/− mice. The experiment in a line: health status, body weight and re-suturing incidence post mini-pump surgery. Format: in vivo.
Text: (§2) ApoE^−/− mice (backcrossed ten times to the C57BL/6 background) were purchased from The Jackson Laboratory. The mice were kept on a twelve-hour light/twelve-hour dark regimen upon arrival. All animal experiments were approved by the IACUC of the Consumer & Personal Product Worldwide, in accordance with AAALAC guidelines. Eight week old, male apoE^−/− mice were fed a normal mouse-chow diet (RP5001; PMI Feeds Inc., St. Louis, Mo.) and acclimated for one week before switching to a pro-atherogenic high fat, high cholesterol, diet (“Western diet”, 21% fat, 0.2% cholesterol, diet No. 88137, Harlan-Teklad, Madison, Wis.) for four weeks.
(§3) Upon initiation of the pro-atherogenic diet, Alzet osmotic mini-pumps (Model 2004; ALZA Scientific Products, Mountain View, Calif.) were implanted into the apoE^−/− mice subcutaneously. The mini-pumps were loaded with angII (EMD Biosciences, San Diego, Calif.) at the delivery rate of 1,000 ng/min/kg for twenty-eight days. The mice were anesthetized using isoflurane for the implantation of the mini-pumps. Small incisions in the lower back of the neck were made and the mini-pumps were inserted into the subcutaneous space of the mice. The incisions were then closed using sterile staplers. Triple antibiotic ointment was applied to each incision post surgery. The mice on the high fat, high cholesterol diet were sacrificed by CO2 inhalation twenty-eight days post mini-pump implantation as is explained in detail subsequently.
as §1
The data is depicted as re-suturing incedince post surgery per group size. A clear increase of the suture index is observed in response to sirolimus administration in a dose dependent manner.

Data set [5] has as its system apoE−/− mice. The data set is described as follows: abdominal aortic adventitia lesion / AAA analysis (incidence, severity, diameter). It counts as in vivo.
Text: as §2
as §3, with “subsequently. […]” for “subsequently.”
The abdominal aorta was subjected to abdominal aortic adventitia lesion analysis. […] Classification of the adventitia lesions was determined according to the scale based on the gross appearance of the aorta reported by Daugherty et al. Briefly, I: Dilated lumen in the supra-renal region of the aorta with no thrombus; II: Remodeled tissue in the supra-renal region that frequently contains thrombus; III: A pronounced bulbous form of type II that contains thrombus; IV: A form in which there are multiple adventitia lesions containing thrombus, some overlapping, in the suprarenal area of the aorta.

A short description of data set [6]: plasma lipids (total cholesterol, triglycerides, LDL and HDL cholesterol). It counts as in vivo, mice.
Text: as §2
Upon initiation of the pro-atherogenic diet, Alzet osmotic mini-pumps (Model 2004; ALZA Scientific Products, Mountain View, Calif.) were implanted into the apoE^−/− mice subcutaneously. The mini-pumps were loaded with angII (EMD Biosciences, San Diego, Calif.) at the delivery rate of 1,000 ng/min/kg for twenty-eight days. The mice were anesthetized using isoflurane for the implantation of the mini-pumps. […]
Plasma triglyceride and total cholesterol levels were determined via an automated enzymatic technique (Equal Diagnostic Inc., Exton, Pa.). […] Aliquots of mouse plasma (100 μl) were injected onto the column, separated with a buffer containing 0.15 M NaCl, 0.01 M Na2HPO4, and 0.1 mM EDTA (pH 7.5) at a flow rate of 0.5 mL/min, and analyzed for lipids.

`CO[C@H]1C[C@@H]2CC[C@@H](C)[C@@](O)(O2)C(=O)C(=O)N2CCCC[C@H]2C(=O)O[C@H]([C@H](C)C[C@@H]2CC[C@@H](O)[C@H](OC)C2)CC(=O)[C@H](C)/C=C(\C)[C@@H](O)[C@@H](OC)C(=O)[C@H](C)C[C@H](C)/C=C/C=C/C=C/1C` [sirolimus]: the “atherosclerotic plaque area (en face analysis) at 4 weeks” value in data set [1] amounted to 3.1±0.4%. Further, in data set [2], the “time of peak whole blood drug level post injection” value is 1 h. Besides, in data set [2] (24 hours post injection), the “whole blood drug level at 24 hours” value is given as “trace level”. Besides, the “atherosclerotic plaque area (en face analysis) of established lesions at 8 weeks” value in data set [3] amounted to 18.4±2.3%. In addition, the “incidence of re-suturing post surgery for mini-pump implantation (wound healing)” value in data set [4] (0.5, 1.0 and 4.0 mg/kg i.p. daily) is “increased incidence of re-suturing”. The body weight entry in data set [4] (all 3 sirolimus treated groups vs vehicle control) is recorded as “trend of decreased body weight”. The health status result in data set [4] (apoE−/− mice, i.p. daily, 0.5, 1.0 and 4.0 mg/kg, 4 weeks) was “not overtly affected”. The “incidence of abdominal aortic adventitia lesion” value in data set [5] (1 of 22 mice receiving sirolimus, vehicle control 30 percent (3 of 10)) came out at 4.5%. Moreover, in data set [5] (vehicle 1.38±0.25 mm, P<0.005), the “severity of AAA as determined by aortic diameter” value was 0.74±0.02 mm. Also, the “incidence of AAA” value in data set [5] (vehicle 32%, P<0.005) is 0%. Moreover, in data set [6] (all sirolimus treated mice vs vehicle control), the “elevation of LDL cholesterol” value is > 60%. Moreover, the plasma triglyceride entry in data set [6] (regardless of the dosage employed) is “trend of elevated triglyceride”.

For the origin of these results see US20080171764A1, “METHODS FOR PREVENTING, MANAGING, AND REVERSING DISEASE CAUSED BY INFLAMMATION MEDIATED VASCULAR LESIONS” (priority 2007, published 2008).
